What all share (assay type): functional, cell-based
In one experiment the test system is LY3.7.2C TK-/- cell line. The experiment can be described thus: Concentration required to inhibit LY3.7.2C TK-/-(mouse lymphoma, thymidine kinase deficient) cell lines.
The subject of a further experiment is CCRF-CEM. The experiment in a line: Concentration required to inhibit CCRF-CEM (human leukemia) cell lines.
In a further experiment the test system is HT-29. The experiment in a line: Concentration required to inhibit HT-29 (human colon adenocarcinoma) cell lines.
In a further experiment the test system is L1210. The experiment can be described thus: Concentration required to inhibit L1210 (mouse lymphocytic leukemia) cell lines.

By IC50 is commonly meant the concentration needed to halve the response being measured. A higher IC50 goes with weaker potency in that assay.

For the compound `Cc1ccc2nc(N)nc(O)c2c1Sc1ccc(C(=O)N[C@H](C(=O)O)c2cccc(O)c2)cc1`, the IC50 in the experiment on LY3.7.2C TK-/- cell line was found to be 600 nM; in the experiment with CCRF-CEM, 3400 nM; in the experiment on HT-29, 17 µM; with L1210, 700 nM.

For the compound `Cc1ccc2nc(N)nc(O)c2c1Sc1ccc(C(=O)N[C@H](C(=O)O)c2ccccc2)cc1`, the IC50 with LY3.7.2C TK-/- cell line is 800 nM; in the experiment with CCRF-CEM it was 5400 nM; in the experiment with HT-29, greater than 20 µM; in the experiment with L1210 it was 2000 nM.

With `COC(=O)c1cccc([C@H](NC(=O)c2ccc(Sc3c(C)ccc4nc(N)nc(O)c34)cc2)C(=O)OC)c1`, the IC50 with LY3.7.2C TK-/- cell line came to 700 nM; in the experiment on CCRF-CEM it was 200 nM; with HT-29 it was 0.6 µM; in the experiment with L1210 it was 700 nM.

Regarding `Cc1ccc2nc(N)nc(O)c2c1Sc1ccc(C(=O)N[C@H](C(=O)O)c2cccc(C(=O)O)c2)cc1`, the IC50 with LY3.7.2C TK-/- cell line is 700 nM; with CCRF-CEM, 50 nM; in the experiment with HT-29 it was 1.2 µM; with L1210 it was 500 nM.

For the compound `COC(=O)[C@@H](NC(=O)c1ccc(Sc2c(C)ccc3nc(N)nc(O)c23)cc1)c1cccc(O)c1`, the concentration for half-maximal inhibition (IC50) amounted to 300 nM with LY3.7.2C TK-/- cell line, 1500 nM in the experiment on CCRF-CEM, 8.4 µM in the experiment with HT-29 and 2000 nM in the experiment with L1210.

Regarding `Cc1ccc2nc(N)[nH]c(=O)c2c1Sc1ccncc1` [NOLATREXED], the IC50 in the experiment with LY3.7.2C TK-/- cell line was 1500 nM; with CCRF-CEM, 800 nM; with HT-29 it was 3.7 µM; in the experiment with L1210, 1100 nM.

`COC(=O)[C@@H](NC(=O)c1ccc(Sc2c(C)ccc3nc(N)nc(O)c23)cc1)c1ccccc1`: the IC50 worked out at 500 nM in the experiment on LY3.7.2C TK-/- cell line, 200 nM in the experiment with CCRF-CEM, 0.6 µM with HT-29 and 400 nM in the experiment on L1210.
